Assay results reported in patent US7132252B2, “Methods for detecting the interaction of compounds with cytochrome P450 using optical molecular sensors” (Invitrogen Corporation, priority 1998, dated 2006).
Each block holds one molecule with its values, some of them ahead of it.

Assays:
CYP2D6 = CYP2D6 (Homo sapiens, UniProt P10635); test: Apparent inhibition constants of drugs for CYP 2D6 with MOBFC as sensor
Description: CYP 2D6 was incubated with 10 μM concentrations of various known inhibitors and drug substrates and residual CYP 2D6 activity assayed with the fluorogenic substrate MOBFC. The assay was performed in a 96-well plate at room temp and at a volume of 100 μl/well. 4×enzyme buffer was prepared and 25 μl was added to each well on the plate, for final assay concentrations of 3.3 mM glucose-6-phosphate, 0.4 units/ml glucose-6-phosphate dehydrogenase and 10 mM MgCl2 in 100 mM K+ phosphate, pH 8.0. […] Six consecutive 1:3 dilutions were made and 50 μl of each was added to appropriate wells on the assay plate. The CYP2D6 was diluted to a solution of 2 pmol/10 μl in 100 mM K+ phosphate and 10 μl was added to each well. 20 μl of buffer was added to each well containing standard. The drug inhibitors were allowed to pre-incubated with the CYP 2D6 enzyme for 1 hr prior to the addition of the MOBFC substrate. […] Hydroxy-trifluoro-methylcoumarin was diluted to 100 μM in K+ phosphate buffer, and seven consecutive 1:2 dilutions were made. […] After addition of 10 μl of 13 mM NADP+ solutions to all wells the assay plate was placed into the fluorescence microtiter plate reader and fluorescence measured at 3 minute intervals for 60 minutes.

CYP3A4 [1] = molecular target: T1, CYP3A4 (Homo sapiens, UniProt P08684); test: Kinetic properties of fluorescein-based fluorogenic substrates with CYP 3A4; assay type: biochemical
T1 sequence (P08684 whole entry): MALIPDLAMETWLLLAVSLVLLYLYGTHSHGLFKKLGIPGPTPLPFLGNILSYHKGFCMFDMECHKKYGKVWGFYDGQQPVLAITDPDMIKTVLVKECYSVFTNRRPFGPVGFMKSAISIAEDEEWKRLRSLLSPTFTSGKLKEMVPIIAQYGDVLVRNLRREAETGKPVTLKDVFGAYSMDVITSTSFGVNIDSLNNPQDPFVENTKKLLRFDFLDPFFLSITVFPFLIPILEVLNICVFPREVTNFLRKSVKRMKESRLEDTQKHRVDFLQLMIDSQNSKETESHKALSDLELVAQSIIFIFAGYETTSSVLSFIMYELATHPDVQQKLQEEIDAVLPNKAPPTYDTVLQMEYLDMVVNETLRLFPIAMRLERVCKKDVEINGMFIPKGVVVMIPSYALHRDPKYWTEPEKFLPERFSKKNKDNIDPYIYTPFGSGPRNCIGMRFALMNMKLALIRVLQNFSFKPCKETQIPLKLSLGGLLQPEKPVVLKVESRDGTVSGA
Description: (§1) Dibenzylfluorescein (DBF) was purchased form Gentest, Woburn, Mass. […] DBF, BOMF and DBOMF were diluted from a stock solution of 2 mM in acetonitrile to a 4×concentration of 80 μM in 100 mM K+ phosphate buffer. Seven 1:2 dilutions were made of each substrate of which 25 μl was added to the appropriate wells. […] The cytochrome P450 isozyme CYP3A4 was diluted to give a 0.5 pmol enzyme per well and added in a volume of 10 μl/well in K+ phosphate, pH 8.0. Enzymatic conversion of the substrate to products was allowed to proceed for 1 hour with fluorescence reads taken every four minutes on a fluorescence microtiter plate reader. The solution was illuminated using an 485/20 nm excitation filter and fluorescence emission was detected through a 530/25 nm the emission filter.

CYP2C9 = CYP2C9 (Homo sapiens, UniProt P11712); test: Kinetic properties of substrate BOMF with CYP 2C9 (Tris-HCl buffer); assay type: biochemical
CYP2C9, sequence (P11712 whole entry): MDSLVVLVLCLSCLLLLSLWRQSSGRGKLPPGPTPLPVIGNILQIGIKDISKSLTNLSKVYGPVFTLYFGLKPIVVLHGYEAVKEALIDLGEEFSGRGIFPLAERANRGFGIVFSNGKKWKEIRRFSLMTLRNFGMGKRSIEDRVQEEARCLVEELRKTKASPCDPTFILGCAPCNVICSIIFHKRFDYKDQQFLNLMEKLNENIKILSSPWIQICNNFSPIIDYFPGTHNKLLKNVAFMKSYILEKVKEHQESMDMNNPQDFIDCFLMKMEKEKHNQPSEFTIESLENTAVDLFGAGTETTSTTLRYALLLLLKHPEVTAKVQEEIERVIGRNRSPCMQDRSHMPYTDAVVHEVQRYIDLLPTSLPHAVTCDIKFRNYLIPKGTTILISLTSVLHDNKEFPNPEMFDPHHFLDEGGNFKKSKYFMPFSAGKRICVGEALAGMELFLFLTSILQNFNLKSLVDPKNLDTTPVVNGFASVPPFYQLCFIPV

CYP3A4 [2] = molecular target: T1, CYP3A4; test: Kinetic properties of fluorogenic substrates with CYP 3A4; assay type: biochemical
Excerpt: For further understanding these terms in the context of this invention, attention is directed to FIG. 4 and the analysis of FIG. 4.
(respectively, MFC and MR).

CYP 2B6 = molecular target: T2, CYP 2B6 (Homo sapiens, UniProt P20813); test: Kinetic properties of fluorogenic substrates with CYP 2B6; assay type: biochemical
T2 sequence (P20813 1-491): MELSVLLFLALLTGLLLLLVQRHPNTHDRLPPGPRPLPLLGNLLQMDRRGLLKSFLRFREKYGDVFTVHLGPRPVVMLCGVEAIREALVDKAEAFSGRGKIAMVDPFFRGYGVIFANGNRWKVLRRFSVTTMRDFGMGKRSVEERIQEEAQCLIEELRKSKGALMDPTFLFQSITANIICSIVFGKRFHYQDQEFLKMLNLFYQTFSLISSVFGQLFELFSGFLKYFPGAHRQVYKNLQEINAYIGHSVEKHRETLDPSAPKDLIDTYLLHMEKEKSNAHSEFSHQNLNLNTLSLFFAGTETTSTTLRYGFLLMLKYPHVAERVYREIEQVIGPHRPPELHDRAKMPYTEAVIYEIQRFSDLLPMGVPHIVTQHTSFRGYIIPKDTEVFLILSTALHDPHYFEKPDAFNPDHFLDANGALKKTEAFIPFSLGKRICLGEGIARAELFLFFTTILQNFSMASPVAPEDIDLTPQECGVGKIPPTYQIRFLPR

CYP3A4 [3] = molecular target: T1, CYP3A4; test: Kinetics of BOMR and BR toward CYP 3A4 (FIG. 4); assay type: biochemical; settings: from FIG. 4 data
Excerpt: Whichever of the four abstractable hydrogen atoms (designated H^1 and H^2 in this representation of BOMR) is removed in the initial reaction step, with reference to Reaction Scheme 1 of FIG. 1, the hydroxylation product will spontaneously decompose to the free resorufin dye. In addition, the benzyloxy group, attached to the carbon carrying the two hydrogens designated H^2, contributes an inductive electronic effect on that carbon, which can stabilize the radical formed during abstraction of one of the H^2 hydrogens by a cytochrome P450.
Optimization of assay conditions was, and is preferably, accomplished through statistically validated Design of Experiments methodologies, using the commercial software package “Design-Expert®” produced by Stat-Ease® Inc. The data shown in FIGS. 4 and 5 were obtained with initial optimization.

CYP3A4 [4] = molecular target: T1, CYP3A4
CYP3A4 [5] = molecular target: T1, CYP3A4; test: in vitro; settings: pH 8, % inhibition; for inhibition at 20 min, 10 µM: Condition A; for inhibition at 40 min, 10 µM: Condition B
[6] = substrate: O=C(OCOCc1ccccc1)c1ccccc1-c1c2ccc(=O)cc-2oc2cc(OCOCc3ccccc3)ccc12; test: Kinetic properties of fluorescein-based fluorogenic substrates with CYP 2C8; assay type: biochemical, human; settings: other: 100 mM K+ phosphate buffer, pH 7.5
Description: as §1
(§2) In deviation from the protocol described in Example 32, the phosphate-based buffer (100 mM K+ phosphate, pH 8.0) was replaced throughout the procedure by 100 mM K+ phosphate buffer, pH 7.5. […] Specifically, the substrate dibenzylfluorescein (DBF) (purchased form Gentest, Woburn, Mass.) and the sensor of the present invention DBOMF were tested for activity with CYP 2C8.

[7] = substrate: O=C(OCc1ccccc1)c1ccccc1-c1c2ccc(=O)cc-2oc2cc(OCc3ccccc3)ccc12; test: as above; assay type: biochemical, human; settings: other: 100 mM K+ phosphate buffer, pH 7.5
Description: as §1, §2

[8] = turnover rate at 1.25 uM substrate, — = too low to quantify
[9] = turnover rate at 10 uM substrate, — = too low to quantify

CYP2D6, sequence (P10635 whole entry): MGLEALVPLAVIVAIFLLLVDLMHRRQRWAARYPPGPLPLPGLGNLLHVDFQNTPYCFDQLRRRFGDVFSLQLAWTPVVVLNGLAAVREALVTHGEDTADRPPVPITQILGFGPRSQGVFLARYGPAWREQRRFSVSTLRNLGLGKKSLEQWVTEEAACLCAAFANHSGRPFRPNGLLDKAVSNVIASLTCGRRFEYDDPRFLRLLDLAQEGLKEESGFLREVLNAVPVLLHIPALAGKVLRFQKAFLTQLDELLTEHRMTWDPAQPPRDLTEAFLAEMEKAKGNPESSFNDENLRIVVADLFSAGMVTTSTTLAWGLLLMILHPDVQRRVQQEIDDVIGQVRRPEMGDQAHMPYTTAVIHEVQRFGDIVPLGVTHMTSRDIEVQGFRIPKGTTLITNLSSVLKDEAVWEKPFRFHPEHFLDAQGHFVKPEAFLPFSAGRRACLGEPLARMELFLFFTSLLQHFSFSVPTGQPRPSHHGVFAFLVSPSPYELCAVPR

Molecule: CC[C@H]1[C@@H]2C[C@H]3[C@@H]4N(C)c5ccccc5[C@]45C[C@@H]([C@@H]2[C@H]5O)N3[C@@H]1O [Amjaline]
Ki (CYP2D6): > 30 µM

type of kinetics (CYP3A4 [1]): MichaelisMenten | v (1.25 uM) (CYP3A4 [1]; turnover rate at 1.25 uM substrate, 100 mM K+ phosphate, pH 8.0): 0.53 min⁻¹ | v (10 uM) (CYP3A4 [1]; turnover rate at 10 uM substrate, 100 mM K+ phosphate, pH 8.0): 3.40 min⁻¹ | type of kinetics (CYP2C9): MichaelisMenten | v (1.25 uM) (CYP2C9; turnover rate at 1.25 uM substrate, 200 mM Tris-HCl buffer, pH 7.5): 1.28 min⁻¹ | v (10 uM) (CYP2C9; turnover rate at 10 uM substrate, 200 mM Tris-HCl buffer, pH 7.5): 2.84 min⁻¹
Molecule: O=C(O)c1ccccc1-c1c2ccc(=O)cc-2oc2cc(OCOCc3ccccc3)ccc12 [BOMF, Benzyloxymethylfluorescein]

type of kinetics (CYP3A4 [2]): Michaelis-Menten | v (1.25 uM) (CYP3A4 [2]; [8]): 0.02 min⁻¹ | v (10 uM) (CYP3A4 [2]; [9]): 0.08 min⁻¹ | type of kinetics (CYP 2B6): notMichaelis-Menten | v (1.25 uM) (CYP 2B6; [8]): 0.42 min⁻¹ | v (10 uM) (CYP 2B6; [9]): 0.42 min⁻¹ | turnover rate (kcat) (CYP3A4 [3]): 0.00167 s⁻¹ | Km (CYP3A4 [3]; human, CYP 3A4 enzyme): 5.3 µM
Molecule: O=c1ccc2nc3ccc(OCc4ccccc4)cc3oc-2c1 [BR, Benzylresorufin, reference compound]

Molecule: COc1cccc2c1C(=O)c1c(O)c3c(c(O)c1C2=O)C[C@@](O)(C(=O)CO)C[C@@H]3O[C@H]1C[C@H](N)[C@H](O)[C@H](C)O1 [Doxorubicin]
Ki (CYP2D6): 8 µM | metabolism-dependent inhibitory activity against the CYP3A4 isozyme (CYP3A4 [4]): at least partial metabolism-dependent inhibitory activity | inhibition at 20 min, 10 µM (CYP3A4 [5]; substrate BOMCC): 81% | inhibition at 40 min, 10 µM (CYP3A4 [5]; substrate BOMCC): 79% | inhibition at 20 min, 10 µM (CYP3A4 [5]; substrate BOMR): 29% | inhibition at 40 min, 10 µM (CYP3A4 [5]; substrate BOMR): 72% | inhibition at 20 min, 10 µM (CYP3A4 [5]; substrate DBOMF): 3% | inhibition at 40 min, 10 µM (CYP3A4 [5]; substrate DBOMF): 33%

Molecule: CN(C)CCC(c1ccc(Cl)cc1)c1ccccn1 (stereo not drawn) [Chlorpheniramine]
Ki (CYP2D6): 2.5 µM

B1: CYP 2C8 (Homo sapiens) (protein)
chain: MEPFVVLVLCLSFMLLFSLWRQSCRRRKLPPGPTPLPIIGNMLQIDVKDICKSFTNFSKVYGPVFTVYFGMNPIVVFHGYEAVKEALIDNGEEFSGRGNSPISQRITKGLGIISSNGKRWKEIRRFSLTTLRNFGMGKRSIEDRVQEEAHCLVEELRKTKASPCDPTFILGCAPCNVICSVVFQKRFDYKDQNFLTLMKRFNENFRILNSPWIQVCNNFPLLIDCFPGTHNKVLKNVALTRSYIREKVKEHQASLDVNNPRDFIDCFLIKMEQEKDNQKSEFNIENLVGTVADLFVAGTETTSTTLRYGLLLLLKHPEVTAKVQEEIDHVIGRHRSPCMQDRSHMPYTDAVVHEIQRYSDLVPTGVPHAVTTDTKFRNYLIPKGTTIMALLTSVLHDDKEFPNPNIFDPGHFLDKNGNFKKSDYFMPFSAGKRICAGEGLARMELFLFLTTILQNFNLKSVDDLKNLNTTAVTKGIVSLPPSYQICFIPV
Km [6]: 3.6 µM | kcat [6]: 0.035 s⁻¹ | kcat/Km [6]: 9722 M⁻¹ s⁻¹ | Km [7]: 2.0 µM | kcat [7]: 0.0067 s⁻¹ | kcat/Km [7]: 3333 M⁻¹ s⁻¹
